Laboratory results published in patent US20220306647A1, “NOVEL INDOLE-2-CARBOXAMIDES ACTIVE AGAINST THE HEPATITUS B VIRUS (HBV)” (AICURIS GMBH & CO. KG, priority 2019, published 2022).
Like-named read-outs stand apart in the source and are kept apart here.

How the values were obtained:
[1] = target: T1, HBV core protein (C-terminal truncated core protein, 149 amino acids of the N-terminal assembly domain, BODIPY-FL labelled) (UniProt P03146); test: Biochemical capsid assembly assay (fluorescence quenching)
T1 construct: fused on or other part: A single cysteine added after residue 149, at position 150; It carries the BODIPY-FL maleimide label
Procedure, shortened: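 Fluorescence quenching of BODIPY-FL-labelled core dimers (1.0 to 2.0 μM) in 50 mM HEPES pH 7.5; compounds at 8 concentrations, 0.5 log-unit dilutions from top 100, 31.6 or 10 μM, 0.5% DMSO. Assembly started with NaCl to […]; fluorescence (ex 477/em 525 nm) read after 6 min. EC50 by non-linear regression.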

[2] = test system: HBV (HepAD38 cells); test: HBV replication assay: determination of HBV DNA from the supernatants of HepAD38 cells; format: cell-based; conditions: Hepatitis B virus, 144 h, HBV DNA in HepAD38 supernatant at day 6, qPCR, read-out: Cell activity
Procedure, shortened: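 HepAD38 cells seeded without tetracycline and treated with half-log compound dilutions; tetracycline-treated wells serve as cell control. On day 6, supernatant HBV DNA was purified and quantified by real-time PCR against plasmid standards; EC50 from non-linear regression of relative copy numbers, three experiments in triplicate.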

[3] = assembly started with NaCl, fluorescence read after 6 min, read-out: Assembly activity

T1 sequence (P03146 whole entry, the tested form may be a part): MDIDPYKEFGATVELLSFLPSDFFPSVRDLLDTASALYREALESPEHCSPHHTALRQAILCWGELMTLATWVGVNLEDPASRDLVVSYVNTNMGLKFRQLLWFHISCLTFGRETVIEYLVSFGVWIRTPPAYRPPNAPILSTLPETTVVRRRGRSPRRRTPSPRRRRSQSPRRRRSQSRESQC

| SMILES | IC50 [1, 3] | EC50 [2] | IC50 ([1]; read-out: Assembly activity, assembly started with NaCl, fluorescence read after 6 min) |
| --- | --- | --- | --- |
| O=C(c1cc2ccccc2[nH]1)N1CCc2nn3c(c2C1)C(=O)N(CCO)C1(CC3)CC1 [Example 89, 13′-(2-hydroxyethyl)-4′-(1H-indole-2-carbonyl)-4′, 8′,9′,13′-tetraazaspiro[cyclopropane-1,12′-tricyclo[7.5.0.0^2,7]tetradecane]-1′,7′-dien-14′-one] | < 5 µM | < 1 µM |  |
| O=C(c1cc2ccccc2[nH]1)N1CCc2nn3c(c2C1)C(=O)N(CCOCc1ccccc1)C1(CC3)CC1 [Example 90, 13′-[2-(benzyloxy)ethyl]-4′-(1H-indole-2-carbonyl)-4′,8′,9′,13′-tetraazaspiro[cyclopropane-1,12′-tricyclo[7.5.0.0^2,7]tetradecane]-1′,7′-dien-14′-one] | < 5 µM | < 1 µM |  |
| O=C(c1cc2ccccc2[nH]1)N1CCc2onc(C(=O)N3CCC(O)CC34CC4)c2C1 (stereo not shown) [Example 95, 4-[5-(1H-indole-2-carbonyl)-4H,5H,6H,7H-[1,2]oxazolo[4,5-c]pyridine-3-carbonyl]-4-azaspiro[2.5]octan-7-ol] | < 5 µM | < 1 µM |  |
| O=C(c1cc2ccccc2[nH]1)N1CCc2onc(C(=O)N3CCCOCC34CC4)c2C1 [Example 96, 4-[5-(1H-indole-2-carbonyl)-4H,5H,6H,7H-[1,2]oxazolo[4,5-c]pyridine-3-carbonyl]-8-oxa-4-azaspiro[2.6]nonane] | < 5 µM | < 1 µM |  |
| CN(C(=O)c1noc2c1CN(C(=O)c1cc3ccccc3[nH]1)CC2)C1(c2ccc(C(=O)O)cc2)CC1 [Example 97, 4-{1-[N-methyl-5-(1H-indole-2-carbonyl)-4H,5H,6H,7H-[1,2]oxazolo[4,5-c]pyridine-3-amido]cyclopropyl}benzoic acid] | < 5 µM | < 1 µM |  |
| CN(C(=O)c1noc2c1CN(C(=O)c1cc3ccccc3[nH]1)CC2)C1(c2ncc(C(=O)O)cn2)CC1 [Example 98, 2-{1-[N-methyl-5-(1H-indole-2-carbonyl)-4H,5H,6H,7H-[1,2]oxazolo[4,5-c]pyridine-3-amido]cyclopropyl}pyrimidine-5-carboxylic acid] | < 5 µM | 1 to 10 µM |  |
| C[C@@H](NC(=O)c1noc2c1CN(C(=O)c1cc3cc(F)c(Cl)cc3[nH]1)CC2)C(F)(F)F [Example 103, 5-(6-chloro-5-fluoro-1H-indole-2-carbonyl)-N-[(2R)-1,1,1-trifluoropropan-2-yl]-4H,5H,6H,7H-[1,2]oxazolo[4,5-c]pyridine-3-carboxamide] | < 5 µM | < 1 µM |  |
| C[C@@H](NC(=O)c1noc2c1CN(C(=O)c1cc3c(Cl)cccc3[nH]1)CC2)C(F)(F)F [Example 104, 5-(4-chloro-1H-indole-2-carbonyl)-N-[(2R)-1,1,1-trifluoropropan-2-yl]-4H,5H,6H,7H-[1,2]oxazolo[4,5-c]pyridine-3-carboxamide] | < 5 µM | < 1 µM |  |
| C[C@@H](NC(=O)c1noc2c1CN(C(=O)c1cc3c(F)c(F)ccc3[nH]1)CC2)C(F)(F)F [Example 105, 5-(4,5-difluoro-1H-indole-2-carbonyl)-N-[(2R)-1,1,1-trifluoropropan-2-yl]-4H,5H,6H,7H-[1,2]oxazolo[4,5-c]pyridine-3-carboxamide] | < 5 µM | < 1 µM |  |
| Cc1c(F)ccc2[nH]c(C(=O)N3CCc4onc(C(=O)N[C@H](C)C(F)(F)F)c4C3)cc12 [Example 106, 5-(5-fluoro-4-methyl-1H-indole-2-carbonyl)-N-[(2R)-1,1,1-trifluoropropan-2-yl]-4H,5H,6H,7H-[1,2]oxazolo[4,5-c]pyridine-3-carboxamide] | < 5 µM | < 1 µM |  |
| Cc1cc(F)cc2[nH]c(C(=O)N3CCc4onc(C(=O)N[C@H](C)C(F)(F)F)c4C3)cc12 [Example 107, 5-(6-fluoro-4-methyl-1H-indole-2-carbonyl)-N-[(2R)-1,1,1-trifluoropropan-2-yl]-4H,5H,6H,7H-[1,2]oxazolo[4,5-c]pyridine-3-carboxamide] | < 5 µM | < 1 µM |  |
| CN(C(=O)c1noc2c1CN(C(=O)c1cc3ccccc3[nH]1)CC2)C1([C@H]2OC[C@H](N)CO2)CC1 [Example 108, 5-(1H-indole-2-carbonyl)-N-methyl-N-{1-[(2r,5r)-5-amino-1,3-dioxan-2-yl]cyclopropyl}-4H,5H,6H,7H-[1,2]oxazolo[4,5-c]pyridine-3-carboxamide] | < 5 µM | < 1 µM |  |
| CN(C(=O)c1onc2c1CN(C(=O)c1cc3ccccc3[nH]1)CC2)C1(c2ccc(C(=O)O)cc2)CC1 [Example 109, 4-{1-[N-methyl-5-(1H-indole-2-carbonyl)-4H,5H,6H,7H-[1,2]oxazolo[4,3-c]pyridine-3-amido]cyclopropyl}benzoic acid] | < 5 µM | < 1 µM |  |
| CN(C(=O)c1cnn2c1CN(C(=O)c1cc3c(Cl)c(F)c(Cl)cc3[nH]1)CC2)C1(c2ccc(C(=O)O)cc2)CC1 [Example 110, 4-{1-[N-methyl-5-(4,6-dichloro-5-fluoro-1H-indole-2-carbonyl)-4H,5H,6H,7H-pyrazolo [1,5-a]pyrazine-3-amido]cyclopropyl}benzoic acid] |  | < 1 µM | < 5 µM |
